Laboratory results as given in patent US11447550B2, “Peptides for molecular detection of PD-L1” (THE CURATORS OF THE UNIVERSITY OF MISSOURI, priority 2016, dated 2022).
Ends that are not written are not given here. * marks the point of attachment. Biotin = O=C1N[C@H]2[C@H](CS[C@H]2CCCCC(=O)*)N1

Assays:
PD-L1 [1] = molecular target: T1, PD-L1 (Homo sapiens, UniProt Q9NZQ7); test: Immunohistochemistry using biotinylated peptide on FFPE tissues; assay type: binding; parameters: Seven PD-L1 expressing NSCLC patient tissues were obtained from the MU OneHealth tissue bank; tissue MU OneHealth tissue bank; U.S. Biomax (TMA) LC1923; host or cells: FFPE placenta, seven NSCLC patient tissues, 192-case lung cancer tissue microarray, four Hodgkin's lymphoma cases; settings: for staining of placental trophoblasts: FFPE placenta tissue (positive control), FIG. 8
Excerpt: To detect PD-L1 in FFPE tissues, manual IHC techniques were employed with a biotin-conjugated version of peptide RK-10-Cy5 and compared with Ventana PD-L1 (SP263) Rabbit monoclonal Primary Antibody stained on a Roche Benchmark Ultra autostainer. Seven PD-L1 expressing NSCLC patient tissues were obtained from the MU OneHealth tissue bank and de-identified according to IRB protocols. Paraffin-embedded patient tissue slides were baked overnight, then de-waxed and rehydrated according to standard protocols. Tissue sections were then subjected to antigen retrieval in EDTA at 95° C. for 20 minutes in EDTA […]. The solution is then cooled for an additional 20 minutes on the bench top prior to buffer rinse. Tissues were then incubated with […] for 2 hours in a humid chamber at RT. After 2 hours, slides were washed with buffer and treated with PIERCE™ High Sensitivity Streptavidin-HRP (1:200 dilution) (Sigma) for 30 minutes at RT in a humid chamber. Once this was complete, slides were again washed in buffer then treated with DAB (3,3′-Diaminobenzidine; Sigma) for 10 minutes. Slides were again washed in buffer, then dehydrated using graded alcohol and xylene and counterstained with hematoxylin. Slides were then imaged using bright-field microscopy on a Leica DM5500.
Seven Patient NSCLC tissues were investigated for PD-L1 using either manual IHC with 15 μM RK-10-Biotin peptide, or the Ventana PD-L1 (SP263) rabbit monoclonal primary antibody stained on a Roche Benchmark Ultra. In this study the peptide was conjugated with biotin, which was used to bind a secondary treatment of streptavidin-HRP. Formalin-Fixed, Paraffin Embedded (FFPE) placenta tissue was used as the positive control, since PD-L1 is expressed in placental trophoblasts (Veras, E., Kurman, R. J., Wang, T.-L. & Shih, I.-M. International Journal of Gynecological Pathology Publish Ahead of Print). This study also utilized biotinylated mock peptide RK-11-Biotin as a negative control. This mock peptide was synthesized to have very low affinity to PD-L1. Both the PD-L1 peptide and Ventana clone SP263 stained the trophoblasts heavily in the placental tissue (FIG. 8). […] Blocking of the Ventana antibody was achieved by first treating the placenta tissue with RK-10-Biotin for 30 minutes, washing, and treating on the Roche autostainer according to specifications. […] As a negative control, normal lung, breast, and colorectal tissues were stained using RK-10 and SP263.
Once confidence in PD-L1 staining was established in repeated placenta tissues, staining in seven NSCLC patient tissues (patients ‘A’ through ‘G’) was compared with the Ventana SP263 antibody and RK-10-Biotin (FIG. 9). […]

PD-L1 [2] = molecular target: T1, PD-L1; test: IHC blocking using PD-L1 peptide or Ventana antibody SP263; assay type: binding; parameters: Seven PD-L1 expressing NSCLC patient tissues were obtained from the MU OneHealth tissue bank; tissue MU OneHealth tissue bank; U.S. Biomax (TMA) LC1923; host or cells: FFPE placenta, seven NSCLC patient tissues, 192-case lung cancer tissue microarray, four Hodgkin's lymphoma cases; settings: placenta tissue treated with RK-10-Biotin for 30 minutes, then Ventana SP263 on Roche autostainer, FIG. 8 panel c
Method: To test specificity of the PD-L1 peptide, PD-L1 receptors were first blocked on the tissue with RK-10 peptide for 1 hour prior to autostaining the tissue with SP263 antibody using the Roche autostainer with the Ventana PD-L1 kit according to Roche's specifications. Blocking of the RK-10 peptide using the SP263 antibody was also investigated by first treating the tissue with SP263 antibody for 30 minutes prior to treating the tissue with peptide according to the previously mentioned protocol.
Seven Patient NSCLC tissues were investigated for PD-L1 using either manual IHC with 15 μM RK-10-Biotin peptide, or the Ventana PD-L1 (SP263) rabbit monoclonal primary antibody stained on a Roche Benchmark Ultra. In this study the peptide was conjugated with biotin, which was used to bind a secondary treatment of streptavidin-HRP. Formalin-Fixed, Paraffin Embedded (FFPE) placenta tissue was used as the positive control, since PD-L1 is expressed in placental trophoblasts (Veras, E., Kurman, R. J., Wang, T.-L. & Shih, I.-M. International Journal of Gynecological Pathology Publish Ahead of Print). This study also utilized biotinylated mock peptide RK-11-Biotin as a negative control. This mock peptide was synthesized to have very low affinity to PD-L1. Both the PD-L1 peptide and Ventana clone SP263 stained the trophoblasts heavily in the placental tissue (FIG. 8). […]

T1 sequence (Q9NZQ7 19-290): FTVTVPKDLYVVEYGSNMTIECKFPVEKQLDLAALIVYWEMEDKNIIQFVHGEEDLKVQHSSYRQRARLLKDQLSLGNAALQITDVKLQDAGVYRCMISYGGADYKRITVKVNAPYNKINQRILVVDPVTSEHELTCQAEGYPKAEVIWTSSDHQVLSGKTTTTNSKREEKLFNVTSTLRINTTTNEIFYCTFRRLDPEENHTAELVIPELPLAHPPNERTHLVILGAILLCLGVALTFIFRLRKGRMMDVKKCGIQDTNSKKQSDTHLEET

Row | Substance | staining of placental trophoblasts (PD-L1 [1]) | tumor staining in NSCLC patient tissues (PD-L1 [1]; seven NSCLC patient tissues A-G, 15 μM peptide, FIG. 9) | SP263 staining after pre-blocking with peptide (PD-L1 [2]) | staining of normal tissues (PD-L1 [1]; normal lung, breast and colorectal tissues (negative control))
1 | Biotin-GSGSGSFVLNWYRMSPSNQTDKLAA [RK-11-Biotin] | light staining at high concentrations |  |  | 
2 | Biotin-GSGSGSTYLCGAISLAPKAQIKESL [RK-10-Biotin] | heavy membrane staining of the trophoblast cells | heaviest staining was observed localized to the tumor regions of the tissues | drastic reduction of staining | 
3 | GSGSGSTYLCGAISLAPKAQIKESL [RK-10] |  |  |  | negative for PD-L1 expression
